Here are results for seven molecules from patent publication US20250099414A1, “COMPOSITIONS AND METHODS FOR TREATING TRIPLE-NEGATIVE BREAST CANCER” (The Board of Regents of the University of Oklahoma, priority 2019, published 2025).

In series [1] the test system is EMT6 cells. Nature of the series: Immunogenic cell death: ATP release (luminescence kit). As to conditions: 24 h. Format: cell-based, murine. On the procedure:
To determine if ANXA5-DM1 induces ATP release from cells after treatment, an ATP luminescence kit (Molecular Probes, Eugene, OR, USA) was utilized according to the manufacturer's instructions. […] After 24 h, 10 μL of cell media was added to 90 μL of standard reaction solution in a white plate. Luminescence reading was obtained from the plate reader, and ATP concentration was calculated by comparing the luminescence reading to a standard curve.

Series [2] has as its system EMT6 cells. Nature of the series: Immunogenic cell death: calreticulin surface expression (flow cytometry). In kind it is cell-based, murine. Conditions: 10 nM DM1; 24 h. On the procedure:
To determine if ANXA5-DM1 induces calreticulin surface expression, flow cytometry was utilized. EMT6 and 4T1 cells were seeded at 25,000 cells/well in 24 well plates and treated 24 h after seeding. […] After 24 h, media was collected into microcentrifuge tubes to collect dead cells. To ensure there would be enough cells, three wells were combined to be one sample. Cells in the plates were then washed with PBS, and 100 μL of trypsin was added to each well. Once 90% of the cells were removed from the plate (2-5 min), cells were added to the microcentrifuge tubes and centrifuged at 500×g for 5 min. Cells were resuspended in 200 μL of 0.5% BSA-PBS and counted to have at least 100,000 cells per sample. Cells were then fixed with 4% paraformaldehyde (PFA, Thermo Fisher Scientific, Waltham MA, USA) for 20 min at 4° C. Cells were then washed two times with 500 μl of 0.5% BSA-PBS at 500×g for 5 minutes. […] After incubation, cells were analyzed on a BD Biosciences Accuri C6 flow cytometer (Franklin Lakes, New Jersey, USA) with excitation at 488 nm, and a 533/30 bandpass filter was used to capture 10,000 gated events per sample. Data was collected and analyzed with BD C6 Accuri software. One sample was composed of three wells, and each sample was analyzed three times. […]
A general note: Flow cytometry measures light scatter and fluorescence of single cells or particles in a stream.

For series [3], the system named is EMT6 cells. Nature of the series: ICD study: cytotoxicity (cell death) after 24 hours. In kind it is cell-based, murine. As to conditions: 10 nM DM1.
A further series concerns mouse EMT6 TNBC cells. As to conditions: for IC50: read-out: IC50, cell viability, 72 h, concentration of DM1 as free drug or in the conjugate, 2 mM calcium.
The test system of a further series is healthy MCF10A cells. The series can be described thus: ANXA5-DM1 and ANXA5 cell viability assay (AlamarBlue), healthy mammary cells. As to conditions: for IC50: read-out: IC50, cell viability, 72 h, 100% confluent cells. (Alamar Blue is a resazurin reagent that responds to reducing activity.)
The test system of a further series is 4T1. The series can be described thus: ANXA5-CMB TNBC cell cytotoxicity, 4T1. Format: cell-based, murine. As to conditions: 24 hours. An excerpt:
(§1) While the cytotoxic activity of the ANXA5-CMB conjugate is excellent against TNBC cells, the cytotoxicity of the conjugate must be tested against healthy vascular and mammary cells.

Another series relates to EMT6. Nature of the series: ANXA5-CMB TNBC cell cytotoxicity, EMT6. In kind it is cell-based, murine. As to conditions: 24 hours.
Source text: as §1

A further series has as its system murine TNBC cells. The series can be described thus: ANXA5-CMB TNBC cell cytotoxicity, statements on both lines together. As to conditions: at 1 μM. In kind it is cell-based.
Source text: as §1

Another series relates to HUVEC cells. The series can be described thus: ANXA5-CMB healthy cell cytotoxicity (resazurin), HUVEC. As to conditions: dose up to 100 μM CMB in the conjugate; 90-100% confluency; 2 mM calcium; 24 hours. On the procedure: (§2) Cell viability was assayed by a resazurin assay (n=3-6). […] Cells were treated with 0-100 μM of CMB in the ANXA5-CMB conjugate in growth media fully supplemented with 2 mM calcium to promote ANXA5 binding. After 72 hours, an Alamar Blue assay was utilized to determine viability. Percent viability was determined by comparing treatment groups to the untreated control (0 μM).
(§3) Cells were treated with 0-100 μM CMB in the ANXA5-CMB conjugate in fully supplemented growth medium with 2 mM calcium. Cells were grown to 90-100% confluency. […] Cell viability was measured via an Alamar Blue assay and viability was compared to the control (0 μM) after 24 hours. Data is presented as mean±SD (n=4-8). Cells were treated with 0-100 μM CMB in the ANXA5-CMB conjugate in fully supplemented growth medium with 2 mM calcium. Cells were grown to 90-100% confluency. […] Cell viability was measured via an Alamar Blue assay and viability was compared to the control (μM) after 24 hours. Data is presented as mean±SD (n=4-8).

The subject of another series is MCF10A cells. The series can be described thus: ANXA5-CMB healthy cell cytotoxicity (resazurin), MCF10A. Format: cell-based, human. As to conditions: 90-100% confluency; 2 mM calcium; 24 hours. On the procedure:
as §2, §3

The subject of series [4] is EMT6-strain TNBC cells with PS externalization. The series can be described thus: ANXA5 colorimetric binding (modified indirect ELISA), EMT6. Set-up: species or system murine. Conditions: 0-20 nM biotinylated ANXA5; 2 mM Ca2+; read-out: dissociation constant of the specific binding. As to the method:
(§4) Binding strength was analyzed via a modified indirect ELISA. Cells (50,000 cells/well) were grown onto 24 well plates and fixed with 0.025% glutaraldehyde once cancer cells were 70-80% confluent, or MCF10A noncancerous cells were 100% confluent. Cancer cells were blocked with 0.5% BSA for 1 h at 37° C. Cells were incubated with 0-20 nM of biotinylated ANXA5 for 2 h at 37° C. and 5% CO2. ANXA5 was biotinylated with a Roche biotin protein labeling kit (Roche, Basel, Switzerland), and the level of biotinylation was quantified with a Pierce Biotin Quantification kit (Pierce Biotechnology, Waltham, MA, USA) per manufacturer's instructions. Cells were washed four times with 0.5% BSA to remove unbound ANXA5. […] The supernatant was collected, and the absorbance was read at 450 nm on a BioTek Synergy HT microtiter plate reader (Winooski, VT). […] The dissociation constant was determined using the nonlinear regression one-site total and nonspecific binding model in GraphPad Prism version 9 software (Graph Pad, San Diego California, USA).
(§5) To confirm the ability of the ANXA5 to bind to PS on the surface of TNBC cells, equilibrium binding experiments with increasing concentrations of biotinylated ANXA5 were used. […] After subtracting out 0 nM ANXA5 background absorbance, the non-specific binding was essentially 0, meaning ANXA5 was not binding to the EMT6 and 4T1 cells when Ca^2+ was absent. […]

Series [5] deals with 4T1-strain TNBC cells with PS externalization. Nature of the series: ANXA5 colorimetric binding (modified indirect ELISA), 4T1. As to conditions: 0-20 nM biotinylated ANXA5; 2 mM Ca2+; read-out: dissociation constant of the specific binding. Set-up: species or system murine. As to the method:
as §4, §5

The subject of series [6] is healthy MCF10A human breast cells. The series can be described thus: ANXA5 colorimetric binding (modified indirect ELISA), MCF10A. As to the method: as §4, §5
In general terms: In an ELISA, binding on a coated surface is turned into a signal by an enzyme label.

The subject of series [7] is EMT6 cells. The series can be described thus: ANXA5-VPA TNBC cytotoxicity (Alamar Blue), EMT6. Conditions: 48 hours, VPA in the conjugate or free VPA, 10^−4 to 10 mM. Format: cell-based, murine. As to the method:
(§6) After confirming the conjugation of VPA to ANXA5, the cytotoxicity of the ANXA5-VPA conjugate was tested in two murine TNBC cell lines (EMT6 and 4T1). […] EMT6 and 4T1 cells were seeded at 5,000 cells/well in 96 well plates and treated 48 hours after seeding. Cells were treated with 10^−4 to 10 mM of VPA in the ANXA5-VPA conjugate or free VPA growth medium fully supplemented with 2 mM of calcium to promote ANXA5 binding. After 48 hours, cell viability was analyzed via a fluorescent Alamar Blue assay. Percent viability was determined by normalizing the control (0 mM VPA) to 100% and comparing each treatment group to the control (n=3).

For the next series, the system named is 4T1 cells. The series can be described thus: ANXA5-VPA TNBC cytotoxicity (Alamar Blue), 4T1. In kind it is cell-based, murine. As to conditions: 48 hours, VPA in the conjugate or free VPA, 10^−4 to 10 mM. As to the method: as §6
Series [8] relates to murine TNBC cell lines (EMT6 and 4T1). The series can be described thus: ANXA5-VPA TNBC cytotoxicity, statement on both lines together. Format: cell-based. Conditions: 48 hours. As to the method: as §6
The conditions of series [9]: cited from earlier work.
The mark [10] stands for this setting: read-out: IC50, cell viability, 72 h, concentration of DM1 as free drug or in the conjugate, 2 mM calcium.

“Also recorded” adds a separate entry of the source. Where two headings read alike, the source gives them in different places.

Regarding “ANXA5-DM1: mertansine (DM1) linked to lysine residues of recombinant annexin A5 with the crosslinker sulfo-SMCC”, the ATP release entry in the series with EMT6 cells [1] (10 nM DM1, versus free DM1 or control) is recorded as “significantly increased ATP release; also recorded: significant increase”. For the same molecule, the “ATP released relative to free DM1” value with EMT6 cells [1] (10 nM) is reported as roughly 10 times. Also, the “calreticulin surface expression (median fluorescent intensity)” value in the series with EMT6 cells [2] is on record as “significantly increased calreticulin surface expression; also recorded: significant increase”. In addition, the “cell death (cytotoxicity)” value in the series on EMT6 cells [3] is “significantly increased cell death”. The “potency (IC50) relative to free DM1” value in the series on mouse 4T1 TNBC cells (72 h viability assay) and in the series with mouse EMT6 TNBC cells (72 h viability assay) was “more than 2 orders of magnitude” throughout. The IC50 with mouse 4T1 TNBC cells (setting [10]) was 0.00085 µM; in the series on mouse 4T1 TNBC cells (read-out: equivalent IC50 based on the ANXA5 concentration, assuming 4 moles DM1 per mole ANXA5, from 0.85 nM DM1), 0.00021 µM; in the series with mouse EMT6 TNBC cells it was 0.00021 µM; in the series on healthy MCF10A cells (concentration of DM1), greater than 5 µM; with healthy MCF10A cells (doses up to 48 μM), greater than 48 µM. In addition, in the series with healthy MCF10A cells (100% confluence, compared with free DM1, doses up to 48 μM), the “cytotoxicity to healthy breast cells” value is “significantly less cytotoxic; also recorded: does not have cytotoxic effects”.
In the case of “ANXA5-CMB: chlorambucil linked to ANXA5 lysine residues via EDC crosslinking chemistry”, the IC50 with 4T1 amounted to 2.7 µM; in the series with EMT6 it was 0.42 µM; in the series with MCF10A cells it was 6 µM. The “IC50 ratio (CMB / ANXA5-CMB)” value in the series with 4T1 was 57; in the series on EMT6 it was 241. In the series with murine TNBC cells, the cytotoxicity was 100%. In addition, the “effect on cell viability” value in the series on HUVEC cells was “did not impact viability”.
Regarding “ANXA5: recombinant annexin A5 produced in E. coli; binds phosphatidylserine in a Ca2+-dependent manner”, the Kd in [4] came out at 0.00114 µM; in series [5], 0.00231 µM. For the same molecule, the “dissociation constant (Kd)” value in series [6] (cells grown to confluence) was “not detectable”. Besides, in series [6] (total minus nonspecific binding), the “specific binding of ANXA5 to the cells” value is given as “no specific binding; also recorded: no ANXA5-PS binding was observed”.
On to `O=C(O)CCCc1ccc(N(CCCl)CCCl)cc1` [CMB, Chlorambucil, reference compound], for which the IC50 with 4T1 (Mus musculus, 4T1) was found to be 156 µM; in the series on EMT6 (Mus musculus, EMT6), 102 µM.
In the case of ANXA5-VPA, the IC50 in the series on EMT6 cells [7] (read-out: IC50 concentration) and in the series with 4T1 cells (read-out: IC50 concentration) was roughly 10 µM throughout. For the same molecule, the “lowest dose with significantly increased cell death compared to the free drug control” value in series [8] is 97 nM.
On to `CCCC(CCC)C(=O)O` [VPA, Valproic acid], for which the IC50 concentration entry in the series with EMT6 cells [7] and in the series with 4T1 cells was “could not be obtained with a dose of up to 10 mM; also recorded: could not be calculated” each time. In addition, in series [9] (72-96 hours, read-out: concentration required to achieve an IC50 value), the IC50 was greater than 1000 µM. For the same molecule, the “dose required to be effective in vitro” value in series [9] (delivered alone, after 72 hours) is 1 to 10 mM.
As to `COc1cc2cc(c1Cl)N(C)C(=O)C[C@H](OC(=O)[C@H](C)N(C)C(=O)CCS)[C@]1(C)O[C@H]1[C@H](C)[C@@H]1C[C@@](O)(NC(=O)O1)[C@H](OC)/C=C/C=C(\C)C2` [DM1, Mertansine, reference compound], the “cell death (cytotoxicity)” value with EMT6 cells [3] is “significantly increased cell death”. The values for the IC50 with mouse 4T1 TNBC cells (setting [10]), in the series with mouse EMT6 TNBC cells and with healthy MCF10A cells (concentration of DM1) were 0.32 µM, 0.028 µM and 0.16 µM, respectively.
